The text below walks through data of ChEMBL document CHEMBL5465560, “Selectivity Literature for EUbOPEN Chemogenomic Library” (2024).

Test [1] deals with T1, 5-hydroxytryptamine receptor 3A (Homo sapiens) (UniProt P46098).
T1 sequence (whole entry): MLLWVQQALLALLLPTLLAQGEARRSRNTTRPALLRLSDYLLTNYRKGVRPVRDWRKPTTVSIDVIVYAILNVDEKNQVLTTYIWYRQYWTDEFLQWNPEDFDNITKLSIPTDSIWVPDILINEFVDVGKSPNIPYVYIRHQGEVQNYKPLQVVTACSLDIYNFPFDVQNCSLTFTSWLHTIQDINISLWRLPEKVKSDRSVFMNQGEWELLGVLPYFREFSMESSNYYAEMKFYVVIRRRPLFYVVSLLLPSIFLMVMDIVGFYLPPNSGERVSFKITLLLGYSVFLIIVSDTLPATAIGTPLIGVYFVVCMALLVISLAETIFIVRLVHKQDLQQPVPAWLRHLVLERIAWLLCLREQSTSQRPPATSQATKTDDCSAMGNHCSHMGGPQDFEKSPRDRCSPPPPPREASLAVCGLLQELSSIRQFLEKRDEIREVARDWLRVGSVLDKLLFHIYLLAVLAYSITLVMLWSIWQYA
The test can be described thus: Selectivity interaction (Panel of kinases, GPCRs, ion channels and transporters (enzymatic assay)) EUB0000266bCl HTR3A.

For test [2], the target named is Fibroblast growth factor receptor 1 (Homo sapiens, UniProt P11362). The test can be described thus: Selectivity interaction (Kinase panel (DSF assay)) EUB0001558a FGFR1.
For test [3], the target named is Epithelial discoidin domain-containing receptor 1 (Homo sapiens) (UniProt Q08345). The test can be described thus: Selectivity interaction (KinomeScan (DiscoverX)) EUB0000699a DDR1. Conditions: at 10 µM.
For test [4], the target named is Phosphatidylinositol 4,5-bisphosphate 3-kinase catalytic subunit beta isoform (Homo sapiens) (UniProt P42338). The test can be described thus: Selectivity interaction (KinomeScan (DiscoverX)) EUB0001049a PIK3CB. Conditions: at 1 µM.
Test [5] has as its target T2, Mitogen-activated protein kinase kinase kinase 15 (Homo sapiens) (UniProt Q6ZN16).
T2 sequence (whole entry): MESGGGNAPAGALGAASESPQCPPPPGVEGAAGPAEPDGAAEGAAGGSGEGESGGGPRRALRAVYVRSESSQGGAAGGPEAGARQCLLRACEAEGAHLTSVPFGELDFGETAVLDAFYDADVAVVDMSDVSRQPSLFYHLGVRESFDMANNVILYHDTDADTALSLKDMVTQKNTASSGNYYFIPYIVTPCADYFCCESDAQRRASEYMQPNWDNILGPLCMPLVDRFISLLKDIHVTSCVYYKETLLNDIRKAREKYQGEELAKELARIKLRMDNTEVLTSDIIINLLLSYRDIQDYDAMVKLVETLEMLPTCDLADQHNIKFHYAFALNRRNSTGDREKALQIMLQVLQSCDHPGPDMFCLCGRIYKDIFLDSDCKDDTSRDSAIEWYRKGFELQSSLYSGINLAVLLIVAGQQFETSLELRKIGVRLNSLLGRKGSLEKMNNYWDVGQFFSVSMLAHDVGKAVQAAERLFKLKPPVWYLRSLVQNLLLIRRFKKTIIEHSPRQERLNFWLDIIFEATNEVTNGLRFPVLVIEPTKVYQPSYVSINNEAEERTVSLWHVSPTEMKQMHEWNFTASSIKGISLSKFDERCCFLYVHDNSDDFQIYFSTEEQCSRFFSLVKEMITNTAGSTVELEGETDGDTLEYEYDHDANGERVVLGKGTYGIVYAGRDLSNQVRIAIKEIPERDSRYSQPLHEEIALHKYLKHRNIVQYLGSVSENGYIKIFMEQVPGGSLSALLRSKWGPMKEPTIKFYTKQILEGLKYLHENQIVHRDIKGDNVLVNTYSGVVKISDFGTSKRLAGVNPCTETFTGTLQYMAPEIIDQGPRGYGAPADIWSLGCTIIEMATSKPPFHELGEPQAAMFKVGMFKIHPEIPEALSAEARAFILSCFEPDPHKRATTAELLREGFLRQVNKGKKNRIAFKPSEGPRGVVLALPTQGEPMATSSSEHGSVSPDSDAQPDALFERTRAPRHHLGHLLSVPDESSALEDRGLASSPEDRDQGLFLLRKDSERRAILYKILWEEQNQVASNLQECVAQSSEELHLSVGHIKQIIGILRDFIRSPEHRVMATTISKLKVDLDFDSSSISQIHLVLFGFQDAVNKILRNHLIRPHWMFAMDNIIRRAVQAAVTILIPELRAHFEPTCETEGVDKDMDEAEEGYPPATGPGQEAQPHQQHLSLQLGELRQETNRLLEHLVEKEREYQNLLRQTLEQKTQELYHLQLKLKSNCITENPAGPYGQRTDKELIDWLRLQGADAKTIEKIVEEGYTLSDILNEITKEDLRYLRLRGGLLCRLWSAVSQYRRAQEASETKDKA
The test can be described thus: Selectivity interaction (KinomeScan (DiscoverX)) EUB0000045b MAP3K15.

Test [6] has as its target Serine/threonine-protein kinase 32C (Homo sapiens) (UniProt Q86UX6). The test can be described thus: Selectivity interaction (KinomeScan (DiscoverX)) EUB0000666a STK32C. Conditions: at 10 µM.
The target in test [7] is Tyrosine-protein kinase JAK1 (Homo sapiens, UniProt P23458). The test can be described thus: Selectivity interaction (Kinase panel (Z-LYTE Assay)) EUB0001632a JAK1. Conditions: at 10 µM.
Test [8] deals with T3, Mitogen-activated protein kinase kinase kinase kinase 2 (Homo sapiens) (UniProt Q12851).
T3 sequence (whole entry): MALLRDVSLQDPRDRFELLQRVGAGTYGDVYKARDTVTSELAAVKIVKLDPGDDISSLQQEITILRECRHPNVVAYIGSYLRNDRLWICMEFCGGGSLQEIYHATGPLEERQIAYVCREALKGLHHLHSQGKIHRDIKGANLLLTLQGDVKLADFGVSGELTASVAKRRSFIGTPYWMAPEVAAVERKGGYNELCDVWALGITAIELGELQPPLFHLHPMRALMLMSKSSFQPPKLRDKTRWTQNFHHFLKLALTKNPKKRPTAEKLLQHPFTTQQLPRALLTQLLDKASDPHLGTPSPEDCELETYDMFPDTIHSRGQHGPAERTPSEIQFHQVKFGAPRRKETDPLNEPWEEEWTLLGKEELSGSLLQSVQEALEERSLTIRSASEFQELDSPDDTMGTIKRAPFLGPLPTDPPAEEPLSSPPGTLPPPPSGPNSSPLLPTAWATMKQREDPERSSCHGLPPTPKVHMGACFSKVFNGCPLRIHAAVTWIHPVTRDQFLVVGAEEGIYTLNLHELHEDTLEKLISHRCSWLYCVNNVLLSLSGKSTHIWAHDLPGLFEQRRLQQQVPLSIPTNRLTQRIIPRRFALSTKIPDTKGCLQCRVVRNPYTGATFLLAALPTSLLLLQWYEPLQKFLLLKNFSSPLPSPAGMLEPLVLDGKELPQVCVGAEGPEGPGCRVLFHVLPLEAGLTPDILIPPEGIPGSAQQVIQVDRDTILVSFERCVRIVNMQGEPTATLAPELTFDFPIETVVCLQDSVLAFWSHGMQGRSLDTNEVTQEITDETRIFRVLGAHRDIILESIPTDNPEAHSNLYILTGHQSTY
The test can be described thus: Selectivity interaction (Kinase panel (Invitrogen)) EUB0000639a MAP4K2. Conditions: at 200 nM.

Chain of Phosphatidylinositol 4,5-bisphosphate 3-kinase catalytic subunit beta isoform (Homo sapiens) (P42338 whole entry, looked up, canonical isoform): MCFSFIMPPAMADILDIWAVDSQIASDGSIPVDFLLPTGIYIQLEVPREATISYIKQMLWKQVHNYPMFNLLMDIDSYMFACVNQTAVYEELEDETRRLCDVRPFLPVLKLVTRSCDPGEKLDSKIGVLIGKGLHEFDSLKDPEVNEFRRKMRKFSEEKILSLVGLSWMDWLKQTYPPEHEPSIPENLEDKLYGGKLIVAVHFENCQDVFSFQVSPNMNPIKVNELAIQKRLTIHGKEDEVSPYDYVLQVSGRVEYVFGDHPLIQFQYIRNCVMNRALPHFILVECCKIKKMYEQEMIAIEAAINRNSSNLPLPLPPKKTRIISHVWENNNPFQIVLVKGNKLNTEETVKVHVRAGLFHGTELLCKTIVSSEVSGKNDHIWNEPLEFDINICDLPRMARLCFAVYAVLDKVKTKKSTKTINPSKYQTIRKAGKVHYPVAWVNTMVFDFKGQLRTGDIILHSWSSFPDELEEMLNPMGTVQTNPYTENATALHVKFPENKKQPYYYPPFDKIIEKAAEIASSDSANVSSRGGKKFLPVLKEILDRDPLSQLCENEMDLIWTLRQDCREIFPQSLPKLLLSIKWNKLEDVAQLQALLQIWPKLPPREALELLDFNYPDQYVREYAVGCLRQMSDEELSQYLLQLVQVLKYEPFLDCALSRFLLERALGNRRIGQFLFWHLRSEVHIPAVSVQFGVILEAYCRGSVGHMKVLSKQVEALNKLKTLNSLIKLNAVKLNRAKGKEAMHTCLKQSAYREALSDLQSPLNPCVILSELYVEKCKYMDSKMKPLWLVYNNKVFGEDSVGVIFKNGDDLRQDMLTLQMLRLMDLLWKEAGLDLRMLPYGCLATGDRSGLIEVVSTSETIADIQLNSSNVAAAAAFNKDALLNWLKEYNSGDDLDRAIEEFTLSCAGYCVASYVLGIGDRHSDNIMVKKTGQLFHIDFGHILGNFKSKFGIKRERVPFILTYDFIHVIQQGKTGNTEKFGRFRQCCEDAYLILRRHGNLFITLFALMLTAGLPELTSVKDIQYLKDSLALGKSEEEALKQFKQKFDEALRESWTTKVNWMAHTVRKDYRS
Chain of Epithelial discoidin domain-containing receptor 1 (Homo sapiens) (Q08345 whole entry, the tested form may be a part, canonical isoform): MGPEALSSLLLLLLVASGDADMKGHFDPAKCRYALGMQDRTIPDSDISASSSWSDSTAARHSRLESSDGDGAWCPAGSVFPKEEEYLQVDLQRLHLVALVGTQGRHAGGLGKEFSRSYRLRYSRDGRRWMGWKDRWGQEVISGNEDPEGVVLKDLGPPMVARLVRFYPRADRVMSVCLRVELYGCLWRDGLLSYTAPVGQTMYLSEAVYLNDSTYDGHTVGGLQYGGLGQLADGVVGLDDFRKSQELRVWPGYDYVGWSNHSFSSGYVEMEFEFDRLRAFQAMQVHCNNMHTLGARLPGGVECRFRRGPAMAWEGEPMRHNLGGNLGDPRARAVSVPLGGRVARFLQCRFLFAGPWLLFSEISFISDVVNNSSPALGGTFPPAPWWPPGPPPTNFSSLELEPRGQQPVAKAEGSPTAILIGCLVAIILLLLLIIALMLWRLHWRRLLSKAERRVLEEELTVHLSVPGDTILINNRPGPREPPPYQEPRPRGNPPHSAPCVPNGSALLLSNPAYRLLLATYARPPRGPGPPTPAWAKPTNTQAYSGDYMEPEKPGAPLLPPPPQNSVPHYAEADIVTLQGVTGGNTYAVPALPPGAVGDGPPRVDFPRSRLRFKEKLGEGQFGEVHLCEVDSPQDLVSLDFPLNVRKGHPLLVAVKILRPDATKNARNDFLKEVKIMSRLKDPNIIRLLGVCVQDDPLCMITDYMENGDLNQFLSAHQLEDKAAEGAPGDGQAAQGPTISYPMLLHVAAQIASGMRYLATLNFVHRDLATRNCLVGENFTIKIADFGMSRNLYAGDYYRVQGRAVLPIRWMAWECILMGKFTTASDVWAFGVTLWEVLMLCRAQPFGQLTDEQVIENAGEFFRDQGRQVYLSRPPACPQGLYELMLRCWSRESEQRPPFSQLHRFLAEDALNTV
Chain of Tyrosine-protein kinase JAK1 (P23458 whole entry): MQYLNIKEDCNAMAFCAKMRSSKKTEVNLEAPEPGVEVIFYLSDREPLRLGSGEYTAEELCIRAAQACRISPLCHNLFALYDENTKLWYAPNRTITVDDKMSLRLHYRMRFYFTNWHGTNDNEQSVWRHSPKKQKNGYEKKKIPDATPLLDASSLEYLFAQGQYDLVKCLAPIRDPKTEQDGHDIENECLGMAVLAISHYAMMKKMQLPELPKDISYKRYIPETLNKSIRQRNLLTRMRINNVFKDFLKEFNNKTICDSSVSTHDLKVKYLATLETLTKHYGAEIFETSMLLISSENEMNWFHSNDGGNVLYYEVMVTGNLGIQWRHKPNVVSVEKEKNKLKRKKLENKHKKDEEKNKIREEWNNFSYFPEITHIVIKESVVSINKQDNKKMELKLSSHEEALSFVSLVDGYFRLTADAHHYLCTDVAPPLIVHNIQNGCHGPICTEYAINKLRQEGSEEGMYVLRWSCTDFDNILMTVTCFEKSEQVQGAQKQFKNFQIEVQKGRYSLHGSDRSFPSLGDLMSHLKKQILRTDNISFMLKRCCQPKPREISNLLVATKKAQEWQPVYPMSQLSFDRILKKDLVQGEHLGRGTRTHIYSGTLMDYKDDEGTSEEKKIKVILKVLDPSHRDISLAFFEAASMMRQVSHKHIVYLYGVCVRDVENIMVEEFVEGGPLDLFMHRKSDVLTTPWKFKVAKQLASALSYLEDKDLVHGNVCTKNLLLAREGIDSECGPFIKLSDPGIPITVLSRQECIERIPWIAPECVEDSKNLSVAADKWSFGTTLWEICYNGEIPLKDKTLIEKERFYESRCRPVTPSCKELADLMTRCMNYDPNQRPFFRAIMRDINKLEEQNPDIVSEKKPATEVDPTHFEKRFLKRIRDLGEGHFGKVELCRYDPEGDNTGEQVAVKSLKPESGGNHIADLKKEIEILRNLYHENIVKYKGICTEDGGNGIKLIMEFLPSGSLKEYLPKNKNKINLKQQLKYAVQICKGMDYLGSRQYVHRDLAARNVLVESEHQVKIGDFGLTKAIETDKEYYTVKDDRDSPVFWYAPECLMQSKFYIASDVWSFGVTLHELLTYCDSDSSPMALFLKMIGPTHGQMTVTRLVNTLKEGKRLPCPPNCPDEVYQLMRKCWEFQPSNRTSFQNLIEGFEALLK
Chain of Serine/threonine-protein kinase 32C (Homo sapiens) (Q86UX6 whole entry): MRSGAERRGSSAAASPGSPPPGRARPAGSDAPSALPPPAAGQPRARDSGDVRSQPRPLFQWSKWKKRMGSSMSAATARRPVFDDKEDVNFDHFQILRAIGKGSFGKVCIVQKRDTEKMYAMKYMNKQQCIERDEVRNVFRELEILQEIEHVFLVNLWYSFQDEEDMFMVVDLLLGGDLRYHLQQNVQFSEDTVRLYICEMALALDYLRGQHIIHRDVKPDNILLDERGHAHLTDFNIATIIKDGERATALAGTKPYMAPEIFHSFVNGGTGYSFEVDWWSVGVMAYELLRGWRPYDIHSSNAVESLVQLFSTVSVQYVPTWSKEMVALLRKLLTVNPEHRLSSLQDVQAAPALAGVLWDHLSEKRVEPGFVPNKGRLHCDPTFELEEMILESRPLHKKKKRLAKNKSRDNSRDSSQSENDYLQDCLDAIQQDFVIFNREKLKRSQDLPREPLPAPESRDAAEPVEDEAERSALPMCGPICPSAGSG
Chain of Fibroblast growth factor receptor 1 (P11362 22-822 limits assumed): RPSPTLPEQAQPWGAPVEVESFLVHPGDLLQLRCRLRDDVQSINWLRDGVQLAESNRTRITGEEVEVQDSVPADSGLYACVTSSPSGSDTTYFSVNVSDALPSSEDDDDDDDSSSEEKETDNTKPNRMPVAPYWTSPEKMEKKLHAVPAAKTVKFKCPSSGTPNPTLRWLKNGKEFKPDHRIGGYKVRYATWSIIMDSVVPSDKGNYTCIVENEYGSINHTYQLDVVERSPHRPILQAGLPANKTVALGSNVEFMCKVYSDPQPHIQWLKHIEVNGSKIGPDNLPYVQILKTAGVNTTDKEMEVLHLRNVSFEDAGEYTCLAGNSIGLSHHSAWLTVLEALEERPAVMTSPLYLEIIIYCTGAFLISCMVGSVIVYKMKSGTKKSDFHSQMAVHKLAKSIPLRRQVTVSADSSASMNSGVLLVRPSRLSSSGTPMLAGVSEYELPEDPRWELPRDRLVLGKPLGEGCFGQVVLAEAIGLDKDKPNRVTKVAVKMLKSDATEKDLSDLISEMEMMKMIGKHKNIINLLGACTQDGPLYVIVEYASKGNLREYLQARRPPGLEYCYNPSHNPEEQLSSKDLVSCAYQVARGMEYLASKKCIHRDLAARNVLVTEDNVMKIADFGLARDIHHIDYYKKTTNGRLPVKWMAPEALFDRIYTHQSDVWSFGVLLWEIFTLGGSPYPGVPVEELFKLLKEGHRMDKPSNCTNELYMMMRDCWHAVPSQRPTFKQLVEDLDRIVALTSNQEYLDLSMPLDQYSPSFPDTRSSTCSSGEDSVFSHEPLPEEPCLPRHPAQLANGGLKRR

In test [1], `CCn1c(-c2nc3cc(C(=O)N4CCCC(N)C4)ccc3n2C)cc2ccccc21` (centres undefined) had a pXC50 of under 4.3 M.
Take `CC(C)(O)[C@H](F)CN1Cc2cc(NC(=O)c3cnn4cccnc34)c(N3CCOCC3)cc2C1=O`: the dTM in test [2] is 1.1 K.
Consider `CCN(CC)CCCCNc1ncc2cc(-c3cc(OC)cc(OC)c3)c(NC(=O)NC(C)(C)C)nc2n1`, for which the % of control in test [3] is 1.1%.
As for `COc1cc(Nc2nc(C)cc(-c3cnn4nc(OC)ccc34)n2)cc(C(F)(F)F)c1`, the % of control in test [4] turned out to be 55%.
Regarding `C=CC(=O)Nc1cc(-n2c(=O)ccc3cnc4ccc(-c5ccc(NS(C)(=O)=O)cc5)cc4c32)ccc1C`, the % of control in test [5] (at 1 µM) was 70%; in test [5] (at 10 µM), 100%.
Take `O=C(NOC[C@H](O)CO)c1ccc(F)c(F)c1Nc1ccc(I)cc1F`: in test [6], the % of control stood at 100%.
As to `Cn1cc(-n2cnc3c(NCc4nc5cc(Cl)c(Cl)cc5[nH]4)nc(N4CCOCC4)nc32)cn1`, the % of control in test [7] is -3.66%.
Molecule `CC[C@@H]1[C@H](F)C(=O)N[C@@H]1COc1nccc2cc(C(N)=O)c(OC)cc12` [ZIMLOVISERTIB] returned a % of inhibition in test [8] of 2.66%.
